Patent publication US10246432B2, “4-(3-cyanophenyl)-6-pyridinylpyrimidine mGlu5 modulators” (Heptares Therapeutics Limited, priority 2013, dated 2019)

system: Male CD-1 mice; test: In vivo efficacy test - mouse marble burying; conditions: 10 and 30 mg/kg po versus vehicle group, dosed 30 min prior to test, one-way ANOVA with Dunnett's post-hoc test
Excerpt: In Vivo Efficacy Test—Marble Burying

Row | Structure (SMILES) | number of marbles buried
1 | N#Cc1cc(Cl)cc(-c2cc(-c3ccc(F)cn3)ncn2)c1 [Example 17, 3-chloro-5-[6-(5-fluoropyridin-2-yl)pyrimidin-4-yl]benzonitrile] | statistically significant decrease

target: human mGlu5 receptor (Homo sapiens (Human), UniProt P41594); test: [3H]-M-MPEP radioligand binding assay; conditions: competition with [3H]-M-MPEP, membranes of HEK293 cells transfected with human mGlu5
Description: Biological Methods Membrane Preparation
cDNA encoding the human mGlu5 receptor was transfected into HEK293 cells using the transfection reagent Genejuice (Novagen). Forty-eight hours after transfection, cells were harvested and washed twice with ice cold phosphate-buffered saline. The pellet was re-suspended in ice-cold buffer containing 20 mM Tris-HCl, pH 7.4, 1 mM EDTA and homogenised with an Ultraturax for 30 s at maximum speed. The suspension was centrifuged (800×g for 5 min at 4° C.) and supernatant collected. Supernatant was centrifuged (40,000×g for 30 min at 4° C.). The resulting pellet was re-suspended and frozen at −80° C. before use. Protein concentration was determined using the BCA protein assay method (Merck Chemicals Ltd).
[^3H]-M-MPEP Radioligand Binding Assay
After thawing, membrane homogenates were re-suspended in the binding buffer (50 mM HEPES pH 7.5, 150 mM NaCl) to a final assay concentration of 2.5 μg protein per well. […] At the end of the incubation, membranes were filtered onto a 96-well GF/B filter pre-incubated with 0.1% polyethylenimine, with a Tomtec cell harvester and washed 5 times with 0.5 mL distilled water. Non-specific binding (NSB) was measured in the presence of 0.1 mM MPEP hydrochloride (Tocris bioscience, catalogue number 1212). Radioactivity on the filter was counted (1 min) on a microbeta counter after addition of 50 μL of scintillation fluid. […] IC50 values were derived from the inhibition curve and the equilibrium dissociation constant (Ki) values were calculated using the Cheng-Prussoff equation.

Sequence of human mGlu5 receptor (P41594 21-1212): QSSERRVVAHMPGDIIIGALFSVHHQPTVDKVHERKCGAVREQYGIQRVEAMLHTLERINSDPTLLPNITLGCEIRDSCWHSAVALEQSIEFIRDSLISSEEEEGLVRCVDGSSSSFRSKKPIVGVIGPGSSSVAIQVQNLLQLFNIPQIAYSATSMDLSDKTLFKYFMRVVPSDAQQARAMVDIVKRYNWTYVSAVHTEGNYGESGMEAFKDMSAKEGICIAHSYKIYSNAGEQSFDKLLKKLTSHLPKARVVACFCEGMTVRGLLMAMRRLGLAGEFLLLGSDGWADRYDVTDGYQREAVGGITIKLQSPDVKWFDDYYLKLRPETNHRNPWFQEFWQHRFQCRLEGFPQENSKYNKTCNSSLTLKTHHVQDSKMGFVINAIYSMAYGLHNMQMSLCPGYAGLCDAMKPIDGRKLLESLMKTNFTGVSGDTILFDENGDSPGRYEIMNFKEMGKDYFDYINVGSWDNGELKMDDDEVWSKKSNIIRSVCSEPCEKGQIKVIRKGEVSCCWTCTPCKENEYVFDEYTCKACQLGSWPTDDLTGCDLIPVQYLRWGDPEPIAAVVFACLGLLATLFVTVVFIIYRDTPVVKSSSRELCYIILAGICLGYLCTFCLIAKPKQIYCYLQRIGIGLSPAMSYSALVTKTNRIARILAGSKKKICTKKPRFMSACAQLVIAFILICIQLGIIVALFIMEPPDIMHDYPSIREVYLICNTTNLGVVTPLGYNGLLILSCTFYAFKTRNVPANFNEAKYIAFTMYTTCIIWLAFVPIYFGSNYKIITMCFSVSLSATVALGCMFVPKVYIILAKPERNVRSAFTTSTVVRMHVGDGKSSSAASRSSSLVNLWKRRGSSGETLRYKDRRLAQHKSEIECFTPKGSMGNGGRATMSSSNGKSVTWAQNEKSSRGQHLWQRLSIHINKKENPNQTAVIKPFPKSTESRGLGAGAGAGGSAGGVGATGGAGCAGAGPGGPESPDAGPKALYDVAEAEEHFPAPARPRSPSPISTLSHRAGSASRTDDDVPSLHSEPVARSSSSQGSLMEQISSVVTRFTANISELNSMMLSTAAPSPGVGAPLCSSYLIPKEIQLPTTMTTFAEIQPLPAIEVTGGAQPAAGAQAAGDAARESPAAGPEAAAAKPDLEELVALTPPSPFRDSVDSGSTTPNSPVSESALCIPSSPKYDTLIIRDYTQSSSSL

Row | Structure (SMILES) | pKi avg
2 | Cc1cc(C#N)cc(-c2cc(-c3ccccn3)ncn2)c1 [Example 4, 3-methyl-5-[6-(pyridin-2-yl)pyrimidin-4-yl]benzonitrile] | 8.56
3 | N#Cc1cc(Cl)cc(-c2cc(-c3ccncn3)ncn2)c1 [Example 6, 3-(4,4′-bipyrimidin-6-yl)-5-chlorobenzonitrile] | 8.27
4 | N#Cc1cc(Cl)c(F)c(-c2cc(-n3cccn3)ccn2)c1 [Example 10, 3-chloro-4-fluoro-5-[4-(1H-pyrazol-1-yl)pyridin-2-yl]benzonitrile] | 8.37
5 | N#Cc1cc(Cl)c(F)c(-c2ccnc(-n3cccn3)c2)c1 [Example 11, 3-chloro-4-fluoro-5-[2-(1H-pyrazol-1-yl)pyridin-4-yl]benzonitrile] | 8.16
6 | N#Cc1cc(Cl)c(F)c(-c2cc(-n3cc(F)cn3)ncn2)c1 [Example 12, 3-chloro-4-fluoro-5-[6-(4-fluoro-1H-pyrazol-1-yl)pyrimidin-4-yl]benzonitrile] | 8.00
7 | N#Cc1cc(CF)cc(-c2cc(-n3cccn3)ncn2)c1 [Example 16, 3-(fluoromethyl)-5-[6-(1H-pyrazol-1-yl)pyrimidin-4-yl]benzonitrile] | 8.17
8 | N#Cc1cc(C#N)cc(-c2cc(-c3ccccn3)ncn2)c1 [Example 21, 5-[6-(pyridin-2-yl)pyrimidin-4-yl]benzene-1,3-dicarbonitrile] | 7.98
9 | Cc1ccc(-c2cc(-c3cc(C)cc(C#N)c3)ncn2)nc1 [Example 23, 3-methyl-5-[6-(5-methylpyridin-2-yl)pyrimidin-4-yl]benzonitrile] | 8.67
10 | COCc1cc(C#N)cc(-c2cc(-c3ccc(F)cn3)ncn2)c1 [Example 24, 3-[6-(5-fluoropyridin-2-yl)pyrimidin-4-yl]-5-(methoxymethyl)benzonitrile] | 8.57
11 | COc1cc(C#N)cc(-c2cc(-c3ccc(F)cn3)ncn2)c1 [Example 25, 3-[6-(5-fluoropyridin-2-yl)pyrimidin-4-yl]-5-methoxybenzonitrile] | 8.37

target: hippocampal mGlu5 receptors (Rattus norvegicus (Rat), UniProt P31424); test: Ex vivo mGlu5 receptor occupancy; assay type: in vivo; conditions: Sprague Dawley rats, 1-10 mg/kg po, one hour post-dose, hippocampal CA3 sections, [3H]-M-MPEP autoradiography, read-out: estimated ED50 (receptor occupancy)
Description: Ex Vivo mGlu5 Receptor Occupancy
One hour post-dose, animals were sacrificed and whole brains removed, rinsed and blot dried. A coronal block was cut containing the hippocampus and divided along the mid-line and rapidly frozen in isopentane for sectioning and autoradiography. Coronal half-brain sections were cut 20 μm thick, approximately 4 mm posterior to the bregma, to incorporate the hippocampal CA3 region. Three adjacent sections were mounted onto slides and incubated with 2 nM [^3H]-M-MPEP (total binding) or 2 nM [^3H]-M-MPEP and 10 μM fenobam (non-specific binding, Tocris bioscience, catalogue number 2386) for 10 min at room temperature. Binding was terminated by aspiration and washing with ice-cold assay buffer (4×5 min) and sections allowed to air dry. Levels of bound radioactivity in the sections were determined using a beta imager over a 16 h period. Occupancy was determined as mean specific binding with the vehicle treated control taken as 100%.

Sequence of hippocampal mGlu5 receptors (P31424 21-1203): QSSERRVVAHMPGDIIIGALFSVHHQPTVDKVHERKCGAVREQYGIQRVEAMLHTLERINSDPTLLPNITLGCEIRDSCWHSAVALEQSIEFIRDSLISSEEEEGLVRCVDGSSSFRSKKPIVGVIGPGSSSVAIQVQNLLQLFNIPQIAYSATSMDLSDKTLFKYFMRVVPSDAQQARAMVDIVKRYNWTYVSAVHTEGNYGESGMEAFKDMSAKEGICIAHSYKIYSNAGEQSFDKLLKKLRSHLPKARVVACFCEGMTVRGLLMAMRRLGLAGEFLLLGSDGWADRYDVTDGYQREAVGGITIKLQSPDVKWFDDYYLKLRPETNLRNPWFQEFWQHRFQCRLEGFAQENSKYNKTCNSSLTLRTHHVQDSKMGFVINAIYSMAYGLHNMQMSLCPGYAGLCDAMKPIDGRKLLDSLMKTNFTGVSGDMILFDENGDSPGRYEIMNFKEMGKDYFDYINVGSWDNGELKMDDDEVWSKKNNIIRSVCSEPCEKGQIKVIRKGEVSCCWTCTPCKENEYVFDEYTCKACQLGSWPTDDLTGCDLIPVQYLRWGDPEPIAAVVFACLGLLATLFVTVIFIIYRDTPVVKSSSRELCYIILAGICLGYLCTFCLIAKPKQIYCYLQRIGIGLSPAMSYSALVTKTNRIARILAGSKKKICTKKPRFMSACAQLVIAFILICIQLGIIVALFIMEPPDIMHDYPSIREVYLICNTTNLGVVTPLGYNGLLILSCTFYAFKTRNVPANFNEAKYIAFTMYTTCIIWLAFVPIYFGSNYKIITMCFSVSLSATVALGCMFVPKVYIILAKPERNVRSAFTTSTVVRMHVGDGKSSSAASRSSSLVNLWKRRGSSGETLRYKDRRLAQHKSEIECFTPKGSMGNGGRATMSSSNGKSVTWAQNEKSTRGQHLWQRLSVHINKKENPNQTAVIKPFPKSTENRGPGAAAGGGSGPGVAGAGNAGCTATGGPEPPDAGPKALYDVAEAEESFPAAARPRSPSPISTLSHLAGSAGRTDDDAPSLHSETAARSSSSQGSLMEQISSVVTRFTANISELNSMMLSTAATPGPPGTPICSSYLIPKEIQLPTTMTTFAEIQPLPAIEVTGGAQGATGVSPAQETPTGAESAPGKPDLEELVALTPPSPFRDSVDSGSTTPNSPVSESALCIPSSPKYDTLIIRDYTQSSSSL

Row | Structure (SMILES) | ED50
12 | N#Cc1cc(Cl)cc(-c2cc(-c3ccccn3)ncn2)c1 [Example 2, 3-chloro-5-[6-(pyridin-2-yl)pyrimidin-4-yl]benzonitrile] | 2.8 mg/kg
13 | N#Cc1cc(Cl)cc(-c2cc(-c3ccc(F)cn3)ncn2)c1 [Example 17, 3-chloro-5-[6-(5-fluoropyridin-2-yl)pyrimidin-4-yl]benzonitrile] | 0.3 mg/kg
14 | N#Cc1cc(C#N)cc(-c2cc(-c3ccc(F)cn3)ncn2)c1 [Example 18, 5-[6-(5-fluoropyridin-2-yl)pyrimidin-4-yl]benzene-1,3-dicarbonitrile] | 2.9 mg/kg
